We go through 37 molecules from patent USRE49735E1 (BRISTOL-MYERS SQUIBB COMPANY, priority 2010, dated 2023).

pEC50: −log10 of the molar value. Several values for one entry are separate records, joined by “and”; a condition that tells them apart may be missing. Equal values may be shown once.

The target in this experiment is human mGluR5A (Homo sapiens, UniProt P41594). In words: mGluR5 FLIPR Assay. The experiment is classed as cell-based. To be noted: positive modulator activity; HEK293 (ZF) cells with human mGluR5A and rat GLAST; Ca++ response to ~EC10 glutamate. As for the experimental part:
HEK293 (ZF) cells stably transfected with human mGluR5A (pIRES neo) and the rat glutamate-aspartate transporter (GLAST; pIRES puro) are grown in a monolayer culture at 37° C. in 5% CO2 and fed with Minimum Essential Medium (MEM) supplemented with 10% dialysed fetal bovine serum. 24 hours prior to assay, cells are enzymatically dissociated from the culture flask (Trypsin, 0.25%), spun down (1000 rpm, 3 min), resuspended, and plated on Greiner black clear bottomed PDL-coated 384-well plates at a density of 30 thousand cells/well. […] Plates are incubated in dye at 37° C. in 5% CO2 for 60 minutes prior to delivery of test compounds in assay buffer. Test compounds are incubated with cells in the presence of dye for 10 minutes prior to being read on the FLIPR platform (Molecular Devices). A Ca^++ signal is induced in the assay plates via the delivery of an ˜EC10 concentration of the endogenous agonist 1-glutamate; images are acquired at 1 Hz for 100 seconds post-delivery of agonist stimulus. Positive modulator activity (i.e. the ability of test compounds to increase the Ca^++ response to a sub-maximal concentration of agonist) is normalized to a saturating concentration of a known mGluR5 PAM run in each assay plate. An EC50 concentration of test compounds is derived from 4-parameter logistic curve fits of transformed fluoresence data via proprietary software suite.

Chain of human mGluR5A (P41594 21-1180 isoform P41594-2): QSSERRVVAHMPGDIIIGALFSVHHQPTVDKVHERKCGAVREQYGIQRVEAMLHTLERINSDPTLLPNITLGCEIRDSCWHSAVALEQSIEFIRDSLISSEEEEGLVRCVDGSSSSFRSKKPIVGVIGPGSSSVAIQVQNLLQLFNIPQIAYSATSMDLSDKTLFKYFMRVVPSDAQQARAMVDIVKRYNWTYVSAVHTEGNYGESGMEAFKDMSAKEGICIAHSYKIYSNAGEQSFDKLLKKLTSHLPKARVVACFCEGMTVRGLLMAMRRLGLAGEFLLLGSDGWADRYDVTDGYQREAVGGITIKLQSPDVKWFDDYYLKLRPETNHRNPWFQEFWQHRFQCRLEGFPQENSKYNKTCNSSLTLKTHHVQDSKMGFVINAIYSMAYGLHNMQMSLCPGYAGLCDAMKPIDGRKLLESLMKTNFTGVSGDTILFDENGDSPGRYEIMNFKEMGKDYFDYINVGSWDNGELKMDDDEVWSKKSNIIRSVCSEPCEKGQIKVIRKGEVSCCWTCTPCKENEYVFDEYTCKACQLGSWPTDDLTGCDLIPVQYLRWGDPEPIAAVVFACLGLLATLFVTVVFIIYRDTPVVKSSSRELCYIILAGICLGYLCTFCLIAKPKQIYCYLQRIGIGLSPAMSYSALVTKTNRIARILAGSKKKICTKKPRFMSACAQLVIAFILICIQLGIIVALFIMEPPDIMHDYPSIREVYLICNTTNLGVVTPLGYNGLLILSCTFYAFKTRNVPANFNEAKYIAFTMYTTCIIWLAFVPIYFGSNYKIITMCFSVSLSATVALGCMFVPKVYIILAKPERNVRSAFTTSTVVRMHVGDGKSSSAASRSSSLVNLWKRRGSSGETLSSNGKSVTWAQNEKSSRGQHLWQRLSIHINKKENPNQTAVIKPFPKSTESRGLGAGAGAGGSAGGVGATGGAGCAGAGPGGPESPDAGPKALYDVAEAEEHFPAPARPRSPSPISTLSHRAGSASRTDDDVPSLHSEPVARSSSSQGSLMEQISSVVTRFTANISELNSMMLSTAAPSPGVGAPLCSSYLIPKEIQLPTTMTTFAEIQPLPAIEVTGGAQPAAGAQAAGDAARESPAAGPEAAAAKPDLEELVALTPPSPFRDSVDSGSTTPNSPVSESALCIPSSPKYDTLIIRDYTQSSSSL

One may read the pEC50 as the EC50 on a negative log10 scale, so that one unit is a factor of ten. A low value points to a high EC50. In the case of `O=C1N[C@H](c2cc(C#Cc3ccc(C4CC4)nc3)cnc2F)[C@@H](c2ccc(F)cc2)O1` [Example 151, (4R,5R)-4-(5-((6-Cyclopropylpyridin-3-yl)ethynyl)-2-fluoropyridin-3-yl)-5-(4-fluorophenyl)oxazolidin-2-one], the negative-log EC50 (pEC50) was under 6.00. Consider `O=C1N[C@@H](c2cncc(C#Cc3ccccc3)c2)[C@H](c2cccs2)O1` (single isomer, unassigned) [Example 345], for which the negative-log EC50 (pEC50) was under 6.00.

With `O=C1N[C@H](c2cncc(C#Cc3ccccc3)c2)[C@@H](c2ccc(F)c(F)c2)O1` [Example 172], the negative-log EC50 (pEC50) was over 7.00. For `COc1cccc([C@H]2OC(=O)N[C@@H]2c2cccc(C#Cc3cncc(C)c3)c2)c1` [Example 86, (4R,5R)-5-(3-Methoxyphenyl)-4-(3-((5-methylpyridin-3-yl)ethynyl)phenyl)oxazolidin-2-one], the pEC50 was over 7.00. For `O=C1N[C@H](c2cccc(C#Cc3ccccc3F)n2)[C@@H](c2ccccc2)O1` [Example 12] the value was under 6.00; for `C[C@]1(c2cncc(C#Cc3ccccc3)c2)NC(=O)O[C@@H]1c1cc(F)ccc1F` (single isomer, unassigned) [Example 407], over 7.00. `COc1cccc([C@H]2OC(=O)N[C@@H]2c2cccc(C#Cc3ccnc(C#N)c3)c2)c1` [Example 56, 4-((3-((4R,5R)-5-(3-Methoxyphenyl)-2-oxooxazolidin-4-yl)phenyl)ethynyl)nicolinonitrile] had a negative logarithm of the EC50 (pEC50) of under 6.00. For `O=C1NC(c2cccc(C#Cc3ncccc3F)n2)C(c2ccc(F)cc2)O1` (single isomer, unassigned) [Example 371] the value was under 6.00. The same measure for `O=C1N[C@H](c2cncc(C#Cc3ccccn3)c2)[C@@H](c2cc(F)ccc2F)O1` [Example 189]: under 6.00. `COc1cccc([C@H]2OC(=O)N[C@@H]2c2cccc(C#Cc3cccc(C)n3)c2)c1` [Example 48, (4R,5R)-5-(3-Methoxyphenyl)-4-(3-((6-methylpyridin-2-yl)ethnyl)phenyl)oxazolidin-2-one] showed a pEC50 of under 6.00.

In the case of `O=C1N[C@H](c2cc(C#Cc3ccccc3)ncc2F)[C@@H](c2cc(F)ccc2F)O1` [Example 301, (4R,5R)-5-(2,5-Difluorophenyl)-4-(5-fluoro-2-(phenylethynyl)pyridin-4-yl)oxazolidin-2-one], the pEC50 is over 7.00. The same measure for `O=C1N[C@H](c2cccc(C#Cc3ncccc3F)n2)[C@@H](c2ccc(F)cc2)O1` (single isomer, unassigned) [Example 370]: > 7.00 and 7.50. The same measure for `COc1cccc([C@H]2OC(=O)N[C@@H]2c2cccc(C#Cc3cccc(OC)n3)c2)c1` [Example 61]: over 7.00; for `O=C1N[C@H](c2cccc(C#Cc3cccnc3)c2)[C@@H](c2cnccn2)O1` [Example 249]: under 6.00. For `O=C1N[C@H](c2cncc(C#Cc3ccccc3)c2)[C@@H](c2ccc(F)cc2)O1` (single isomer, unassigned) [Example 41] the value was over 7.00; for `COc1cccc([C@H]2OC(=O)N[C@@H]2c2cccc(C#Cc3cnc4ccccc4c3)c2)c1` [Example 76, (4R,5R)-5-(3-Methoxyphenyl)-4-(3-(quinolin-3-ylethynyl)phenyl)oxazolidin-2-one], under 4.52. The molecule `Cc1ccc([C@@H]2OC(=O)N[C@H]2c2cccc(C#Cc3ccccc3)c2)cc1` (racemic) [Example 106, (±)-(phenylethynyl)phenyl)-5-p-tolyloxazolidin-2-one] had a pEC50 of over 7.00. The same measure for `Cc1ccc([C@@H]2OC(=O)N[C@H]2c2cccc(C#Cc3ccccc3)c2)cc1` [Example 108]: under 6.00; for `O=C1N[C@H](c2cncc(C#Cc3ccccc3)c2)[C@@H](c2ccnnc2)O1` (single isomer, unassigned) [Example 322]: over 7.00; for `O=C1N[C@H](c2cccc(C#Cc3cnccn3)n2)[C@@H](c2ccc(F)cc2)O1` (single isomer, unassigned) [Example 368]: 6.00 to 7.00.

As to `O=C1N[C@@H](c2cccc(C#Cc3ccc(F)cc3)n2)[C@H](c2ccccc2)O1` (single isomer, unassigned) [Example 17], the pEC50 was under 6.00.

`O=C1N[C@@H](c2nc(C#Cc3ccccc3)ccc2F)[C@H](c2ccccc2)O1` (single isomer, unassigned) [Example 306] showed a negative-log EC50 (pEC50) of under 5.52. The same measure for `O=C1N[C@H](c2cncc(C#Cc3ccccc3)c2)[C@@H](c2cccs2)O1` (single isomer, unassigned) [Example 346]: > 7.00 and 7.88; for `O=C1N[C@H](c2cncc(C#Cc3ccccc3)c2)[C@@H](c2ccc(F)c(F)c2F)O1` [Example 294]: > 7.00 and 8.57; for `COc1cccc([C@H]2OC(=O)N[C@@H]2c2cccc(C#Cc3ccc(Cl)nc3)c2)c1` [Example 82, (4R,5R)-4-(3-((6-Chloropyridin-3-yl)ethynyl)phenyl)-5-(3-methoxyphenyl)oxazolidin-2-one]: 6.00 to 7.00. For the molecule `O=C1N[C@@H](c2cncc(C#Cc3cncc(F)c3)c2)[C@H](c2ccc(F)cc2)O1` (single isomer, unassigned) [Example 44], the negative-log EC50 (pEC50) is under 6.00. For `O=C1N[C@H](c2cncc(C#Cc3ccccc3F)c2)[C@@H](c2cc(F)ccc2F)O1` [Example 282] the value was over 7.00; for `O=C1N[C@H](c2cccc(C#Cc3ccccc3)c2)[C@@H](c2nc(-c3ccccc3)no2)O1` [Example 158], under 4.52. For `O=C1N[C@@H](c2nccc(C#Cc3ccccc3)n2)[C@H](c2cccc(F)c2)O1` [Example 274] the value was under 6.00; for `COc1cccc([C@H]2OC(=O)N[C@@H]2c2cccc(C#Cc3ccc(C)nc3)c2)c1` [Example 83, (4R,5R)-5-(3-Methoxyphenyl)-4-(3-((6-methylpyridin-3-yl)ethynyl)phenyl)oxazolidin-2-one], 6.00 to 7.00; for `O=C1N[C@H](c2cc(C#Cc3ccccn3)cnc2F)[C@@H](c2ccc(F)cc2)O1` [Example 156, (4R,5R)-4-(2-Fluoro-5-(pyridin-2-ylethynyl)pyridin-3-yl)-5-(4-fluorophenyl)oxazolidin-2-one], over 7.00. For `C[C@@]1(c2cccc(F)c2)OC(=O)N[C@H]1c1cncc(C#Cc2ccccc2)c1` [Example 221] the value was under 6.00; for `O=C1N[C@H](c2cncc(C#Cc3ccccc3)c2)[C@H](c2cc(Cl)ccc2Cl)O1` (single isomer, unassigned) [Example 327], under 6.00; for `O=C1N[C@H](c2cncc(C#Cc3ccccc3)c2)[C@@H](c2cc(F)cc(F)c2)O1` [Example 170], over 7.00.

Turning to `O=C1N[C@H](c2cc(C#Cc3cccc(C4CC4)n3)cnc2F)[C@@H](c2ccc(F)cc2)O1` [Example 153, (4R,5R)-4-(5-((6-Cyclopropylpyridin-2-yl)ethynyl)-2-fluoropyridin-3-yl)-5-(4-fluorophenyl)oxazolidin-2-one], the pEC50 is 6.00 to 7.00 and 6.73.

Molecule `Cn1nccc1[C@H]1OC(=O)N[C@@H]1c1cncc(C#Cc2ccccc2)c1` [Example 342, (4R,5S)-5-(1-methyl-1H-pyrazol-5-yl)-4-(5-(phenylethynyl)pyridin-3-yl)oxazolidin-2-one] had a negative logarithm of the EC50 (pEC50) of over 7.00. The same measure for `O=C1N[C@H](c2cncc(C#Cc3cncc(F)c3)c2)[C@@H](c2cc(F)cc(F)c2)O1` [Example 171]: over 7.00.
